Laboratory results as given in publication PMC9014415, “Repositioning of a Diaminothiazole Series Confirmed to Target the Cyclin-Dependent Kinase CRK12 for Use in the Treatment of African Animal Trypanosomiasis” (Journal of Medicinal Chemistry, 2022).

Assays:
[1] = tested on: Inositol polyphosphate kinase-like protein (IPPK); assay: SILAC pull-down with resin-bound 13, competition by compound 2; assay type: binding, Trypanosoma brucei; details: procyclic lysate; compound 2 10 μM vs DMSO; mean of three experiments
Description: (§1) Chemical proteomic studies were carried out by immobilizing an analogue of compound 2 (probe 13; Figure 3A and Scheme 4) to magnetic beads via a polyethyleneglycol (PEG) linker. Appropriate attachment sites for the PEG linker were informed by the established structure–activity relationships within this series, and an advanced intermediate toward the final derivatized compound was screened against both bloodstream and procyclic forms of T. brucei to ensure that it retained potency. The analogue was immobilized by attachment to NHS-ester-activated paramagnetic beads. Activated beads were then incubated in SILAC (stable isotope labeling by amino acids in cell culture)-labeled T. brucei procyclic whole-cell lysates in the presence or absence of compound 2 (10 μM) with either “light-“ or “heavy”-labeled lysate. After combining the eluates from the beads and performing proteomic analyses, proteins that bound specifically to the diaminothiazole pharmacophore were distinguished from proteins that bound non-specifically to the beads by virtue of compound 2:DMSO tryptic peptide isotope ratios. As a result of these studies, four kinases and a cyclin were identified as specific binders of the compound 2-derivatized beads (Figure 3B and Table S11). It should be noted that of the four kinases identified, only CRK12 has been established as essential for survival of T. brucei.[14] […]
(§2) Trypanosoma brucei procyclic form parasites were grown in SDM-79 media (SILAC SDM-79, 2 g/L NaHCO3, 7.5 mg haemin, 1% glutamax and 15% dialysed FBS) with either light or heavy isotopes for 6-9 divisions (6 days) to a density of ~3 x 10^7 cells/ml. A total of 3 x10^8 cells were washed thrice with PBS. Buffer 1 (0.1 mM tosyl phenylalanyl chloromethyl ketone, 1 µg/ml leupeptin, 1 mM aprotinin, 1 mM phenylmethylsulfonyl fluoride, 1x Roche Complete protease inhibitors) was added to the parasite pellet, followed by Buffer 2 (100 mM Tris pH 7.5, 10% glycerol, 300 mM NaCl, 3 mM MgCl2, 1.6% IGEPAL® CA-630, 2 mM dithiothreitol) and incubated at 4 °C for 20 min. Lysates were centrifuged at 100,000 g at 4 °C for 1 h. Beads (blank and compound-bound) were washed twice with water and twice with lysis buffer (Buffer 1 and 2). Lysates were incubated with 2 mg blank beads for 30 min at 4 °C. Lysates were then incubated with either 10 µM DDD00770675 or 1% DMSO for 30 min at 4 °C. Finally, lysates were incubated with 2 mg of bound compound for 1 h at 4 °C. Beads were washed three times with wash buffer (0.5% IGEPAL® CA-630, 50 mM Tris pH 8.0, 5 mM EDTA, 1 mg/ml BSA) and twice with Tris-buffered saline. Samples were combined, run 1.5 cm into a Brs-TRIS 10% acrylamide gel and stained with Coomassie quick reagent for 1 h. Gel bands were subjected to in-gel reduction with 10 mM dithiothreitol, alkylation with 50 mM iodoacetamide and digestion with 12.5 μg/mL trypsin (Pierce) for >16h at 37°C. Recovered tryptic peptides were vacuum […]
(§3) 4.5 Peptide fractionation and LC-MS/MS analysis
(§4) Peptides were fractionated using High pH RP Chromatography. A C18 Column from Waters (XBridge peptide BEH, 130Å, 3.5 µm 2.1 x 150 mm, Waters, Ireland) with a guard column (XBridge, C18, 3.5 µm, 2.1 ×10 mm, Waters) were used on a Ultimate 3000 HPLC (Thermo-Scientific). Buffers A and B used for fractionation consist, respectively, of (A) 10mM ammonium formate in milliQ water pH 9.5 and (B) 10 mM ammonium formate, pH 9.5 in 90% acetonitrile. Fractions were collected using a WPS-3000FC auto-sampler (Thermo-Scientific) at 1 min intervals. Column and guard column were equilibrated with 2% Buffer B for twenty minutes at a constant flow rate of 0.2 mL/min. Peptides (190 µL) were injected onto the column, and the separation gradient was started 1 min after sample was loaded onto the column. Peptides were eluted from the column with a gradient of 2% Buffer B to 60% Buffer B in 53 min. The column was washed for 15 min in 100% Buffer B and equilibrated at […]
(§5) 2% Buffer B for 20 min. […]

[2] = tested on: Cdc-2 related kinase 11 (CRK11); assay: as above; assay type: binding, Trypanosoma brucei; details: procyclic lysate; compound 2 10 μM vs DMSO; mean of three experiments
Description: as §1, §2, §3, §4, §5

[3] = tested on: Cdc2-related kinase 12 (CRK12); assay: as above; assay type: binding, Trypanosoma brucei; details: procyclic lysate; compound 2 10 μM vs DMSO; mean of three experiments
Description: as §1, §2, §3, §4, §5

[4] = tested on: MAP kinase 6 (MAPK6); assay: as above; assay type: binding, Trypanosoma brucei; details: procyclic lysate; compound 2 10 μM vs DMSO; mean of three experiments
Description: as §1, §2, §3, §4, §5

[5] = tested on: Cyclin 9 (CYC9); assay: as above; assay type: binding, Trypanosoma brucei; details: procyclic lysate; compound 2 10 μM vs DMSO; mean of three experiments
Description: as §1, §2, §3, §4, §5

[6] = tested on: MAP kinase 4 (MAPK4); assay: as above; assay type: binding, Trypanosoma brucei; details: procyclic lysate; compound 2 10 μM vs DMSO; mean of three experiments
Description: as §1, §2, §3, §4, §5

[7] = tested on: MAP kinase 9, putative (MAPK9); assay: as above; assay type: binding, Trypanosoma brucei; details: procyclic lysate; compound 2 10 μM vs DMSO; mean of three experiments
Description: as §1, §2, §3, §4, §5

[8] = tested on: T. b. brucei; assay: Acute T. b. brucei efficacy in mice; assay type: in vivo, Trypanosoma brucei brucei; details: 3 mg/kg bid po for 4 days
Description: (citrate, fumarate and phosphate) (Figure 9). These alternative salt forms of compound 2 were prepared and formulated in the best vehicle determined by injection site tolerability analysis (0.3M sodium acetate buffer, Kolliphor EL, N-methyl pyrrolidone, 2-pyrrolidone, and 11% water suitable for injection). Rat IM pharmacokinetics was then carried out with each salt to determine the salt form to use for efficacy. None of these salt forms offered any improvement in rat IM pharmacokinetic profile over the free base in the tolerated vehicle (Figure S7).
3. In vivo efficacy studies
The T. congolense (IL3000) and T. vivax (ILRAD V34) cell lines7, 8, both originating from Kenya, were used in the following in vivo mouse studies. For studies in cattle, either Trypanosoma congolense (savannah) KONT 2/133, 224) or T. vivax STIB 719 was used.
3.1 Mouse efficacy studies for T. brucei brucei.
Mouse efficacy studies for T. brucei brucei were carried out as previously detailed.9 3.2 NMRI mouse efficacy studies for T. congolense and T. vivax.
Mouse models of infections were carried out using standardized protocols. Briefly, 1 mL samples of cryopreserved T. congolense, or T. vivax-infected blood harvested directly from an infected mouse, were diluted with Hanks Balanced Salt Solution plus 20 mM glucose (HBSS+G) to 5 x 10^4 trypomastigotes/mL (5 x 105 for T. vivax). […]

Row | Compound | Log2 ratio DMSO/compound [1] | Log2 ratio DMSO/compound [2] | Log2 ratio DMSO/compound [3] | Log2 ratio DMSO/compound [4] | Log2 ratio DMSO/compound [5] | Log2 ratio DMSO/compound [6] | Log2 ratio DMSO/compound [7] | Acute T. b. brucei efficacy in mice [8]
1 | CC(C)CS(=O)(=O)N[C@H]1CC[C@H](Nc2nc(N)c(C(=O)c3c(F)cc(CN(C)C)cc3F)s2)CC1 [Compound 2, N-(trans)-[4-[[4-Amino-5-[4-(dimethylaminomethyl)-2,6-difluoro-benzoyl]thiazol-2-yl]amino]cyclohexyl]-2-methyl-propane-1-sulfonamide] | 1.85 | 3.57 | 3.47 | 1.62 | 3.16 | 2.84 | 4.15 | 
2 | CC(C)CS(=O)(=O)N[C@H]1CC[C@H](Nc2nc(N)c(C(=O)c3c(F)cccc3F)s2)CC1 [Compound 1, N-((trans)-4-((4-Amino-5-(2,6-difluorobenzoyl)thiazol-2-yl)amino)cyclohexyl)-2-methylpropane-1-sulfonamide] |  |  |  |  |  |  |  | Cures 3 mg/kg bid po for 4 days
